# Experimental data reported in patent US20260234159A1, “SMALL MOLECULE TREATMENT OF FATTY LIVER DISEASE AND HCC” (SCANDIEDGE THERAPEUTICS AB, priority 2023, published 2026).
# Like-named read-outs stand apart in the source and are kept apart here.
# Key:
# [1] = In vivo biosafety study in rats: histopathological and immunohistochemical examination; set-up: species or system Sprague Dawley male rats; conditions: 30 mg/kg, seven days
# Protocol: In vivo biosafety studies. Healthy Sprague Dawley male rats (12 weeks old, 250-280 g) were obtained from Atatürk University Experimental Research Center ([…] Turkey) and housed under standard environmental conditions (temperature 20° C.-25° C., humidity 50±20% and 12-hour light/dark diurnal cycle). Food and water were available ad libitum. Rats were randomly separated into one control group and two experimental groups (30 mg/kg/day BX-912 or JNK-IN-5A, n=5). […] The control group were received the same amount of vehicle solution only. After 7 days, rats were anaesthetized, and blood samples were collected from the abdominal aorta for biochemical and haematological analysis. The plasma was separated and stored at -80° C. for further analysis. Major organs such as heart, kidney, liver, muscle, adipose, intestine (duodenum, ileum, jejunum), pancreas, colon, and stomach were collected from all the animals for further analysis. Selected organs were fixed in 10% neutral buffered formalin for histopathological examination. Histopathological examination. […] Immunohistochemical examination. […] Slides were counter stained with hematoxylin.
# [2] = system: polychromatic erythrocytes; test: Micronucleus frequencies (MNPCEs) as genotoxicity endpoint; type: in vivo, Sprague Dawley male rats; conditions: 30 mg/kg, seven days
# Protocol: In addition to sampling for biochemical and haematological analysis, one drop of blood samples was obtained from the animals for evaluating micronucleus frequencies as genotoxicity endpoint at the end of the experiments. Three different smears of each rat were prepared using pre-coded and cold slides, then the slides air-dried at room temperature, and fixed in ethanol for 10 min, and stained with Giemsa. […] The incidence of MN-PCEs was determined by scoring a total of 3000 PCE per animal and results were expressed as % MN [12].
# HSD fed rats = test: In vivo efficacy study in high sucrose diet (HSD) steatosis rats; conditions: HSD plus 30 mg/kg seven days
# Description: In vivo efficacy studies. After 1-week acclimation period, rats were randomly separated into two groups: control group (n=5) and high sucrose group (n=20). The control group was fed with a standard diet while the others consumed high sucrose diet (HSD). Sucrose was purchased from Sigma Chemical Co. (St Louis, MO, USA) and supplied at the dose of 10% in the drink water for two weeks.
# After 2 weeks, five rats in the HSD group were randomly sacrificed for conformation of NAFLD model. Then, the remaining rats in the HSD group were separated into three sub-groups (n=5): HSD group, HSD plus BX-912 group and HSD plus JNK-IN-5A group. BX-912 and JNK-IN-5A were dissolved in DMSO and were orally administrated using oral gavage for one week (30 mg/kg/day). The HSD group were treated with vehicle solution only.
# At the end of the experiment, rats were sacrificed after being anesthetized. Blood samples were collected from the abdominal aorta and centrifuged at 8000 rpm for 15 min at 4° C. The plasma was separated and stored at −80° C. until further analysis. Other internal organs, including the heart, adipose tissues, liver, kidney, muscle, intestine (duodenum, ileum, jejunum), pancreas, colon and stomach were immediately removed and then snap frozen in liquid nitrogen and stored at −80° C.; the liver was also fixed in 10% formaldehyde for histopathological examination.
# Histopathological examination. The liver tissues were fixed in 10% buffered formaldehyde solution. After fixation, the tissues were passed through graded alcohol and xylene series and embedded in paraffin blocks. 5 micrometer thick sections were taken serially from the paraffin blocks. Histopathological changes were evaluated by performing hematoxylin eosin staining on the sections taken. Sections were evaluated according to histopathological findings as none (−), mild (+), moderate (++) and severe (+++).
# Immunohistochemical examination. After deparaffinization, the slides were immersed in antigen retrieval solution (pH 6.0) and heated in microwave for 15 min to unmask the antigens. The sections were then dipped in 3% H2O2 for 10 min to block endogenous peroxidase activity. Protein block was dropped onto the sections, washed with PBS for 10 min. Primary antibodies (8-OH-dG, Cat No: sc-66036, Diluent Ratio: 1/100, Santa Cruz) were prepared and applied according to the usage conditions. Expose mouse and rabbit specific HRP/DAB detection IHC kit were used as follows: sections were incubated with goat anti-mouse antibody, then with streptavidin peroxidase, and finally with 3,3′ diamino benzidine+chromogen. Slides were counter stained with hematoxylin. Immunoreactivity in the sections were graded as none (−), mild (+), moderate (++) and severe (+++).
# [3] = MTT cell viability after one week steatosis (ranking of target molecules); type: cell-based, human; conditions: human, HepG2 cells (wild type); HepG2, 10 μM, one week steatosis induce media, MTT; Control 100.00
# Protocol: (§1) HepG2 wild type cells were purchased from genome engineering company Synthego. Cells were maintained with Roswell Park Memorial Institute growth media, RPMI, 1640 (R2405, Sigma-Aldrich) and supplemented with 10% fetal bovine serum (FBS, F7524, Sigma-Aldrich), 1% penicillin-streptomycin (P/S, P4333, Sigma-Aldrich). Steatosis induction media was prepared as high glucose Dulbecco's Modified Eagle Media (DMEM, D0819, Sigma-Aldrich) with 10% FBS, 1% P/S media supplemented with 10 μg/ml insulin (I9278, Sigma-Aldrich), and 10 μM T0901317 (T2320, Sigma-Aldrich). HepG2 cells were seeded 6×10^4 cells per well for 96-well plate and 1×10^6 cells per well for 6-well plate. HepG2 cells were incubated with steatosis induce media (SM) for one week by 3 day+2 day+2 day with total three times media exchange.
# (§2) HepG2 cells were seeded at 60,000 cells per well in 96 well plate. Using steatosis induce media, the cells were treated with 10 μM of target drugs for one week. The media was changed 3 times at day 0, day 3 and day 5. TAG assay was performed using MAK266-1KT SDS Triglyceride Quantification Colorimetric kit and cell viability analysis was performed using MTT assay.
# [4] = MTT cell viability / IC50 in growth media; type: cell-based, human; conditions: human, HepG2 cells; 10 μM, treatment for 2 days
# Protocol: (§3) The cytotoxic effects of the synthesized drugs on the HepG2 cells were tested by MTT (Thiazolyl Blue Tetrazolium Bromide) method. HepG2 cells were seeded 2×10^4 cells per well in 96-well plate in 200 μL growth media. […] After the incubation period, 5 mg/ml MTT (M2128, Sigma-Aldrich) solution in PBS (10 μL) was added to each well. After 1 hr, the MTT solution and all media were removed from the wells. 100 μl of DMSO was added and mixed to dissolve the formazan crystals. Cell viability was analysed by measuring the absorbance of the dissolved formazan in a microplate reader at a wavelength of 570 nm with microplate reader (Hidex Sense Beta Plus).
# (§4) HepG2 cells were maintained and used with RPMI 1640 (R2405, Sigma-Aldrich) supplemented with 10% fetal bovine serum (F7524, Sigma-Aldrich), 1% P/S (P4333, Sigma-Aldrich). 20,000 cells per well of HepG2 cells were seeded into a 96-well plate and triplicated for MTT assay and LDH assay. Cell viability was measured by MTT assay (M6494, ThermoFisher) and cytotoxicity was measured by LDH assay kit (ab65393, abcam) by following manufacturer's instructions. Optical density (O.D) was numerated using a microplate reader (Hidex Sense Meta Plus).
# HepG2 cells [5] = test: MTT cell viability / IC50 in growth media; type: cell-based, human
# Protocol: as §3, §4
# HepG2 cells [6] = test: Triglyceride (TAG) measurement assay, one week steatosis model; type: cell-based, human; conditions: Homo sapiens
# Protocol: as §1
# HepG2 cells were seeded at 6×10^4 cells per well into 96 well plate and induced steatosis for one week with 10 μM of target drugs. After steatosis induction, cells were washed with 200 μl of phosphate buffered saline (PBS) and triglyceride contents was measured by Triglyceride Assay Kit—Quantification (ab65336, Abcam) following manufacturer's instruction. Optical density (O.D) values were detected with microplate reader at 570 nm (Hidex Sense Beta Plus).
# as §2
# HepG2 cells [7] = test: Mitochondrial membrane potential assay (TMRE); type: cell-based, human; conditions: 10 μM, one day
# Protocol: HepG2 cells were seeded into a 6-well plate at 400,000 cells per well. After treatment with the compounds at desired concentration and time, TMRE (ab113852, abcam), Autophagy (ab139484, abcam), ROS (ab113851, abcam), and Lipid peroxidation (ab243377, abcam) assay were performed according to manufacturer's instructions. Fluorescence images were taken using ZOE™ Fluorescent Cell Imager (Biorad) and ROI of fluorescence intensity was measured and calculated by Image J. For microplate reader florescence assay, 40,000 of HepG2 cells were seeded into a 96-well plate and triplicated. GFP (Ex480 nm, Em530 nm) and RFP (Ex549 nm, Em574 nm) were measured using a microplate reader (Hidex Sense Meta Plus).
# HepG2 cells [8] = test: Invasion assay (transwell); type: cell-based, human; conditions: Homo sapiens, HepG2, 24 hr, read-out: invasiveness reduced by
# Protocol: The effects of the treatment with the compounds on the invasion ability of HepG2 and Huh7 cells were determined by 8 μm pores transwell chamber (Corning™ 3464, USA).
# (§5) Transwell membrane was coated with 100 μl collagen (Sigma C3867, USA) diluted with PBS to a concentration of 1 mg/ml. After overnight incubation at 4° C., the collagen solution was discarded and the membrane was washed with PBS. 100,000 cells in 200 μl serum free media together with the tested compounds were added into the upper well and 600 μl of 10% FBS supplemented growth media was added to the lower well as an invasive attractant in a 24-well plate. Cells were incubated at 37° C. in a CO2 incubator for one day. The cells were fixed with 3.7% formaldehyde for 30 minutes at room temperature and washed with PBS twice. The cells were stained with 1% crystal violet in PBS for 20 minutes and residual cells in inner membrane were swabbed gently with a cotton swab. Invaded cells located at the outer membrane were imaged by ZOE Fluorescent Cell Imager (Bio-Rad, USA) and counted by image. For wound healing assay, 100,000 cells per well were seeded into 24-well plates and grown until 95-100% confluent. Linear wound was created by using a 200 μl pipette tip. Image was recorded at the time point of day 0 until control group wound closure with 1 μM of compounds by ZOE Fluorescent Cell Imager (Bio-Rad, USA). Wound areas were measured using ImageJ software.
# JNK1/2/3 = test: Western blot, JNK1/2/3 P54 and p46 isoforms; type: cell-based, human; conditions: 10 μM, 2 days
# Protocol: HepG2 cells were seeded into a 6-well plate at 400,000 cells per well. After treatment with 10 μM of JNK-IN-5A and its derivatives for two days, lysates were harvested with CelLytic M (C2978, Sigma-Aldrich). […] SDS PAGE were performed using Mini-PROTEAN® TGX™ Precast Gels (Bio-Rad) and transferred using Trans-Blot® Turbo™ Transfer System (Bio-Rad). […] ImageQuantTMLAS 500 (29-0050-63, GE) was used to detect protein bands.
# HepG2 cells [9] = test: FACs analysis with PI staining (cell cycle); type: cell-based, human; conditions: PI FACs, 10 μM, 2 days
# Protocol: 400,000 HepG2 cells were seeded in a 6-well plated and treated with 10 μM of the compounds for 2 days. Cells were fixed with 70% ethanol and stained with 50 μg/ml PI. Prepared cells were analysed using BD FACS Canto II Flow Cytometry system at PE-A channel 10,000 cells per group. The data was histogram plotted with BD FACSDiva 9.0.
# HepG2 cells [10] = test: Wound healing assay; type: cell-based; conditions: Homo sapiens, HepG2, 96 h, day 4, untreated 100% wound closure, read-out: wound healing delayed by
# Protocol: as §5
smiles,measurement,setting,value
O=C(Nc1cccc(Nc2ncc(Br)c(NCCc3cnc[nH]3)n2)c1)N1CCCC1 [BX-912],histological structures of major organs,[1],normal histological structures
same,side effects on the rats,[1],no side effects
same,8-OH-dG expression in liver tissues,[1]; IHC,negative
same,genotoxic potential,[2],non-genotoxic
same,frequencies of MNPCEs compared to Ctrl animals,[2]; p>0.05,not statistically different
same,degeneration in hepatocytes in liver tissues,HSD fed rats; HSD 3w severe,Mild
same,degeneration in renal tubule epithelium,HSD fed rats; HSD 3w severe,mild
same,fattening in the parenchyma cells of pancreas tissues,HSD fed rats; HSD 3w severe,mild
same,steatosis in hepatocytes in liver tissues,HSD fed rats; HSD 3w severe,moderate
same,8-OH-dG expression in hepatocytes,HSD fed rats; HSD 3w strong,significantly decreased
N#Cc1c(NC(=O)c2cccc3ccccc23)sc2c1CCN(CC(=O)Nc1ccnc(Cl)n1)C2 [PKL-B172],"viability at 1 week, 10 µM",[3],53.7%
same,"viability at 2 days, 10 µM",[4],62.7%
same,IC50,"HepG2 cells [5]; Homo sapiens, 48 h, HepG2, treatment for 2 days, 30 μM to 30 nM",13.3 µM
same,cell viability of HepG2 cells,HepG2 cells [5]; especially in cancerous media,particularly low cell viability
same,activity at 10 µM,"HepG2 cells [6]; 168 h, HepG2, 10 μM, one week steatosis induce media, Control 100.00, read-out: TAG (%)",22%
same,activity at 10 µM,"HepG2 cells [6]; HepG2, 168 h, ratio between TAG content and cell viability, Control 100.0, read-out: TAG/cell viability",40.9%
same,mitochondrial membrane potential,HepG2 cells [7],significantly decreased
same,inhibition at 1 µM,HepG2 cells [8],72.3%
same,JNK1/2/3 p46 expression,JNK1/2/3,not significantly altered
same,Cell population G0/G1,HepG2 cells [9],16.7
same,Cell population G2/M,HepG2 cells [9],73.2
same,Cell population S,HepG2 cells [9],2.7
same,inhibition at 1 µM,HepG2 cells [10],60.7%
